The values below are quoted from earlier work in patent US20210212952A1, “METHOD AND ENCAPSULATED SUBSTANCE FOR TREATING PAIN DUE TO A VARIETY OF DISEASES” (priority 2020, published 2021).

For the series the following is noted: in vivo, po.

Consider `O=C1CC[C@@]2(O)[C@H]3Cc4ccc(O)c5c4[C@@]2(CCN3CC2CC2)[C@H]1O5` [Naltrexone, naltrexone], for which the “absorbed into the blood stream” value was 96%.
